TGI and GI50 data for 13 molecules are collected here from PubChem BioAssay (NCI).

Among the test systems are OVCAR-4 ovarian; 786-0 renal; MALME-3M melanoma; OVCAR-5 ovarian; SNB-75 CNS; OVCAR-8 ovarian; RXF 393 renal; SK-MEL-28 melanoma; MOLT-4 leukemia; CCRF-CEM leukemia.
What all share (assay): NCI anticancer screen, dose series, 48 h

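Following 48 hours of exposure in 96-well plates, responses at five concentrations were used to interpolate endpoints linearly. GI50 marks 50% less growth. TGI denotes the concentration required for complete inhibition of growth.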 Where only a bound is given, the exact number is not on record here.

`N#Cc1c(NC(=O)CCC(=O)O)ccc2ccccc12`: the TGI in the test on OVCAR-4 ovarian, with 786-0 renal, in the test with MALME-3M melanoma, in the test with OVCAR-5 ovarian, with SNB-75 CNS and in the test with OVCAR-8 ovarian was over 100 µM each time. Also, the TGI in the test with RXF 393 renal and with SK-MEL-28 melanoma was over 100 µM each time.
Regarding `Cc1cccc(NC(=O)CC2C(=O)Nc3ccccc3S2(=O)=O)c1C` (stereo unspecified), the TGI in the test with OVCAR-4 ovarian was 32.1 µM; with 786-0 renal, 76.1 µM; in the test with MALME-3M melanoma it was 45.1 µM; in the test with OVCAR-5 ovarian, over 100 µM; in the test on SNB-75 CNS, 41.6 µM; in the test on MOLT-4 leukemia, over 100 µM. Also, the TGI with OVCAR-8 ovarian is 44.4 µM; in the test on RXF 393 renal, 34.3 µM; in the test on SK-MEL-28 melanoma, over 100 µM.
With `COC(=O)/C(=C/N1CCN(C(=O)c2ccco2)C1=S)C(C)=O`, the GI50 with OVCAR-4 ovarian was 17.4 µM; in the test on 786-0 renal, 11.2 µM; with MALME-3M melanoma, 5.64 µM; with SNB-75 CNS it was 21 µM; in the test on MOLT-4 leukemia, 20.8 µM; with OVCAR-8 ovarian, 27.8 µM. In addition, the results for the GI50 with RXF 393 renal and in the test on SK-MEL-28 melanoma were 4.41 µM and 9.08 µM, respectively. Moreover, the TGI in the test on OVCAR-4 ovarian is 42.9 µM; with 786-0 renal it was 27.7 µM; in the test with MALME-3M melanoma, 50.4 µM; with SNB-75 CNS, over 100 µM; in the test on MOLT-4 leukemia it was over 100 µM; with OVCAR-8 ovarian it was 88.5 µM. In addition, the TGI in the test on RXF 393 renal worked out at 9.49 µM; in the test on SK-MEL-28 melanoma, 52.6 µM.
With `CC(=O)N1c2ccccc2C23CCN4CC5=CCOC(O)C(C5CC42)C13` (stereo unspecified), the TGI in the test with OVCAR-4 ovarian, in the test on 786-0 renal, in the test with MALME-3M melanoma, in the test on CCRF-CEM leukemia, with OVCAR-5 ovarian and in the test on SNB-75 CNS was over 100 µM in each case. Also, the TGI with MOLT-4 leukemia, with OVCAR-8 ovarian and in the test with SK-MEL-28 melanoma was over 100 µM each time.
Regarding `Cc1ccc(NC(=O)SCCC(=O)O)cc1NC(=O)SCCC(=O)O`, the TGI with OVCAR-4 ovarian, with 786-0 renal, in the test with CCRF-CEM leukemia, in the test with OVCAR-5 ovarian, in the test with MOLT-4 leukemia and in the test with OVCAR-8 ovarian was over 100 µM each time. Besides, the TGI in the test with RXF 393 renal and in the test with SK-MEL-28 melanoma was over 100 µM in each case.
Consider `CC1=CC(C)C(O)C(C)/C=C/C(O)C/C=C(/C)C(=O)CC(O)C(C)\C=C/C=C/C=C\C(=O)NC2=C(O)c3cc(C)c(O)c(c3C(=O)C2=O)C1=O` (stereo unspecified), for which the TGI in the test with OVCAR-4 ovarian, in the test with 786-0 renal, with CCRF-CEM leukemia, with OVCAR-5 ovarian, in the test on SNB-75 CNS and with MOLT-4 leukemia was over 100 µM each time. Moreover, the TGI with OVCAR-8 ovarian and in the test with SK-MEL-28 melanoma was over 100 µM in each case.
As for `O=C(NCCNCCO)c1ccc2oc3cc4ccccc4c(=O)n3c2c1`, the GI50 in the test with OVCAR-4 ovarian was 15.8 µM; in the test with 786-0 renal it was 14.6 µM; in the test with MALME-3M melanoma it was 12.2 µM; in the test on SNB-75 CNS it was 15.2 µM; in the test with MOLT-4 leukemia it was 6.88 µM; in the test with OVCAR-8 ovarian, 8.33 µM. Further, the figures for the GI50 in the test on RXF 393 renal and in the test on SK-MEL-28 melanoma were 9.96 µM and 22.8 µM, respectively. In addition, the TGI with OVCAR-4 ovarian was 36.8 µM; in the test with 786-0 renal, 44.4 µM; in the test with MALME-3M melanoma, 24.1 µM; in the test with SNB-75 CNS, 47.5 µM; in the test with MOLT-4 leukemia, over 50 µM; with OVCAR-8 ovarian, 25.5 µM. The TGI is 21.1 µM in the test on RXF 393 renal and over 50 µM in the test on SK-MEL-28 melanoma.
As for `C=C(CO)CC(O)c1ccccc1` (stereo unspecified), the TGI in the test with OVCAR-4 ovarian, in the test with 786-0 renal, in the test with CCRF-CEM leukemia, with OVCAR-5 ovarian, with SNB-75 CNS and in the test on MOLT-4 leukemia was over 100 µM in each case. Besides, the TGI in the test with OVCAR-8 ovarian, in the test on RXF 393 renal and in the test on SK-MEL-28 melanoma was over 100 µM in each case.
Regarding `NC(=O)c1c(OCc2c(F)cc(Br)cc2F)nsc1NC(=O)NCCCCN1CCCC1`, the GI50 with OVCAR-4 ovarian is over 10 µM; in the test with 786-0 renal it was 1.43 µM; with MALME-3M melanoma, 1.73 µM; in the test with CCRF-CEM leukemia it was 2.77 µM; in the test on OVCAR-5 ovarian, 3.1 µM; in the test on MOLT-4 leukemia, 2.14 µM. The GI50 was 4 µM in the test on OVCAR-8 ovarian, 0.362 µM in the test on RXF 393 renal and 1.71 µM in the test on SK-MEL-28 melanoma. Further, the TGI was over 10 µM with OVCAR-4 ovarian; 4.42 µM in the test on 786-0 renal; 3.41 µM in the test on MALME-3M melanoma; 8.17 µM with CCRF-CEM leukemia; over 10 µM with OVCAR-5 ovarian; 9.76 µM in the test with MOLT-4 leukemia. Besides, the TGI in the test with OVCAR-8 ovarian was over 10 µM; with RXF 393 renal, 1.71 µM; in the test with SK-MEL-28 melanoma it was 3.35 µM.
`COC1OC(C)C(OC(=O)C(C)(C)C)C(C)(O)C1O` (stereo unspecified): the TGI in the test with OVCAR-4 ovarian, in the test with 786-0 renal, in the test on MALME-3M melanoma, in the test on CCRF-CEM leukemia, in the test with OVCAR-5 ovarian and in the test on MOLT-4 leukemia was over 100 µM in each case. Also, the TGI in the test on OVCAR-8 ovarian, in the test with RXF 393 renal and with SK-MEL-28 melanoma was over 100 µM in each case.
For `NC(C(=O)O)C(N)C(=O)O` (stereo unspecified), the TGI in the test with OVCAR-4 ovarian, in the test with 786-0 renal, in the test with MALME-3M melanoma, in the test with OVCAR-5 ovarian, in the test on MOLT-4 leukemia and with OVCAR-8 ovarian was over 100 µM in each case. Also, the TGI with RXF 393 renal and in the test with SK-MEL-28 melanoma was over 100 µM each time.
Turning to `C=C(C)C1CC[C@]2(C(=O)O)CCC3(C)[C@H](CCC4[C@@]5(C)CC[C@H](OC6OC(CO)C(O)C6OC6OC(C)C(O)C(O)C6O)[C@@](C)(CO)C5CC[C@]43C)C12` (stereo partly specified), the TGI in the test on OVCAR-4 ovarian, in the test with 786-0 renal, in the test on CCRF-CEM leukemia, with OVCAR-5 ovarian, in the test with SNB-75 CNS and in the test with MOLT-4 leukemia was over 100 µM throughout. Further, the TGI in the test with OVCAR-8 ovarian, in the test on RXF 393 renal and with SK-MEL-28 melanoma was over 100 µM in each case.
Take `COc1ccc(C(=O)C(C(=O)C(=O)Nc2nc3ccc(OC)cc3s2)c2ccc(OC)cc2)cc1` (stereo unspecified): the TGI in the test with OVCAR-4 ovarian, in the test on 786-0 renal, in the test on MALME-3M melanoma, in the test on CCRF-CEM leukemia, in the test on OVCAR-5 ovarian and in the test on SNB-75 CNS was over 100 µM in each case. The TGI with MOLT-4 leukemia, with OVCAR-8 ovarian and in the test on SK-MEL-28 melanoma was over 100 µM in each case.
